Test results as given in publication PMC11779965 (Nature Communications, 2025).

Tests used:
female CD-1 mice = assay: Catalepsy bar test; assay type: in vivo; conditions: 200 mg/kg IP, 90 min after dosing
physchem = conditions: pH 7.4, […]
[1] = clogP calculated with ChemAxon Marvin Sketch; conditions: 78 vs Sulfadiazine

SMILES	Catalepsy score compared to Vehicle-treated group (in words) (female CD-1 mice)	also measured
CCN(CC)CCNC(=O)c1cc(S(C)(=O)=O)cnc1OC [Compound 79]	remained at the level of the Control Vehicle-treated group	–
Nc1ccc(S(=O)(=O)Nc2ncccn2)cc1 [Sulfadiazine]	–	logD (physchem): -0.8
CCN(CC)CCNC(=O)c1cc(S(C)(=O)=O)ccc1OC [Tiapride]	significantly higher	–
CS(=O)(=O)c1cnc(NS(=O)(=O)c2ccc(N)cc2)nc1.Cl [Compound 78]	–	Decrease of lipophilicity on replacement of H with MeSO2 [1]: ca. 1.2 clogP units
